This passage reports IC50 results from ChEMBL document CHEMBL1124661, “Synthesis of 8-substituted derivatives of the 2-deoxy analogue of 3-deoxy-beta-D-manno-2-octulopyranosonic acid (2-deoxy-beta-KDO) as inhibitors of 3-deoxy-D-manno-octulosonate cytidylyltransferase” (J Med Chem, 1989).

Test [1] in a line: Activity against CMP-KDO synthetase (CKS) from Escherichia coli D21,the compound gave rise to a strongly interfering absorption in the thiobarbituric acid assay.
A short description of test [2]: Activity against CMP-KDO synthetase-KDO-lipid A transferase (CKS-KLT) assay from Escherichia coli D21.
A short description of test [3]: Activity against CMP-KDO synthetase (CKS) from Escherichia coli D21.
Test [4] in a line: Activity against CMP-KDO synthetase (CKS) from Escherichia coli D21, the compound gave rise to a strongly interfering absorption in the thiobarbituric acid assay.

With `NC[C@@H](O)[C@H]1O[C@H](C(=O)O)C[C@@H](O)[C@H]1O`, the IC50 entry is “Strongly interfering absorption” in test [1] and 7.4 µM in test [2].
As for `O=C(O)[C@@H]1C[C@@H](O)[C@@H](O)[C@@H]([C@H](O)CO)O1`, the results for the concentration for half-maximal inhibition (IC50) in test [2] and in test [3] were 10 µM and 18 µM, respectively.
For `O=C(O)[C@@H]1C[C@@H](O)[C@@H](O)[C@@H]([C@H](O)CF)O1` the same measures were 4.8 µM and 24 µM.
Take `N.[N-]=[N+]=NC[C@@H](O)[C@H]1O[C@H](C(=O)O)C[C@@H](O)[C@H]1O`: the results for the concentration for half-maximal inhibition (IC50) in test [2] and in test [4] were 80 µM and “Strongly interfering absorption”, respectively.
As for `N.O=C(O)[C@@H]1C[C@@H](O)[C@@H](O)[C@@H]([C@H](O)CS)O1`, the results for the IC50 entry in test [1] and in test [2] were “Strongly interfering absorption” and 17 µM, respectively.
In the case of `C[C@@H](O)[C@H]1O[C@H](C(=O)O)C[C@@H](O)[C@H]1O`, the IC50 in test [2] turned out to be 6.8 µM; in test [3], 22 µM.
